Data taken from paper PMC12147132 (2025).

Legend:
[1] = tested on: AD-aptamer subunits L1F + L2Q (DNA, aptamer) ATAACGCATTTTGTTATGCGGAGGAAGGTAT/AATGCGTTATTAGAATT/ATACCTGGGGGAGTATTAACATGTTCCATCTT/TTAAATCAAGATGGAAC; test: not given in the source (Figure S2)
[2] = tested on: BB' (DNA, aptamer) CTGTTCAGCGATTACTATGCGGAGGAAGGTAT/ATACCTGGGGGAGTATTAGTACACCCATGTTCCTGA; test: DNAzyme substrate cleavage fluorescence; conditions: Mg2+; qualitative; AD 4-5 mM with ADA present
[3] = tested on: AD-aptamer subunits L1F + L2Q (DNA, aptamer) ATAACGCATTTTGTTATGCGGAGGAAGGTAT/AATGCGTTATTAGAATT/ATACCTGGGGGAGTATTAACATGTTCCATCTT/TTAAATCAAGATGGAAC; test: not stated in material (Figure S4)
[4] = tested on: BA' (DNA, aptamer) CTGTTCAGCGATTACTATGCGGAGGAAGGTAT/ATACCTGGGGGAGTATTAGTACACCCATGTTTCAGT; test: DNAzyme substrate cleavage fluorescence; conditions: Mg2+; qualitative; AD 4-5 mM with ADA present
[5] = tested on: D1/D2 (AD-stabilized Mg2+-dependent DNAzyme; same sequences as constituent AB') (DNA, aptamer) GTCCTCAGCGATTACTATGCGGAGGAAGGTAT/ATACCTGGGGGAGTATTAGTACACCCATGTTCCTGA; test: DNAzyme substrate cleavage fluorescence; conditions: qualitative, AD 3-5 mM with ADA present
[6] = tested on: AA' (DNA, aptamer) GTCCTCAGCGATTACTATGCGGAGGAAGGTAT/ATACCTGGGGGAGTATTAGTACACCCATGTTTCAGT; test: DNAzyme substrate cleavage fluorescence; conditions: Mg2+; qualitative; AD 4-5 mM with ADA present
[7] = highest concentration not in material

| Structure (SMILES) | binding [1, 7] | binding ([1]; qualitative) | other results |
| --- | --- | --- | --- |
| Cc1cn([C@H]2C[C@H](O)[C@@H](COP(=O)(O)OP(=O)(O)OP(=O)(O)O)O2)c(=O)[nH]c1=O | no |  |  |
| Nc1ccn([C@@H]2O[C@H](COP(=O)(O)OP(=O)(O)OP(=O)(O)O)[C@@H](O)[C@H]2O)c(=O)n1 | no |  |  |
| Nc1nc2c(ncn2[C@@H]2O[C@H](COP(=O)(O)OP(=O)(O)OP(=O)(O)O)[C@@H](O)[C@H]2O)c(=O)[nH]1 | no |  |  |
| Nc1ncnc2c1ncn2[C@@H]1O[C@H](CO)[C@@H](O)[C@H]1O |  |  | binding [2]: yes; Kd ([3]; not perturbed by ADA or inosine): 11.8 ± 2.3 µM; binding [4]: yes; binding [5]: yes; binding [6]: yes |
| Nc1ncnc2c1ncn2[C@@H]1O[C@H](COP(=O)(O)O)[C@@H](O)[C@H]1O |  | yes |  |
| Nc1ncnc2c1ncn2[C@@H]1O[C@H](COP(=O)(O)OP(=O)(O)O)[C@@H](O)[C@H]1O |  | yes |  |
| Nc1ncnc2c1ncn2[C@@H]1O[C@H](COP(=O)(O)OP(=O)(O)OP(=O)(O)O)[C@@H](O)[C@H]1O |  | yes |  |
| O=c1[nH]cnc2c1ncn2[C@@H]1O[C@H](CO)[C@@H](O)[C@H]1O |  |  | binding [3, 7]: no |
| O=c1ccn([C@@H]2O[C@H](COP(=O)(O)OP(=O)(O)OP(=O)(O)O)[C@@H](O)[C@H]2O)c(=O)[nH]1 | no |  |  |
